{
  "source": "patent US20240415808A1",
  "about": "“Dosage Regimen for Fexuprazan Injection Composition” (Daewoong Pharmaceutical Co., Ltd., priority 2021, published 2024)",
  "test_system": "indomethacin-induced bleeding gastric ulcer",
  "assay": "indomethacin-induced bleeding gastric ulcer model using male rats",
  "format": "in vivo, rat",
  "conditions": "1 mg/kg single dose tail vein, mean ± SD",
  "experimental": "In order to evaluate the efficacy of fexuprazan against bleeding gastric ulcers, an indomethacin-induced bleeding gastric ulcer model using male rats was used.\nSpecifically, the previously prepared 1-(5-(2,4-difluorophenyl)-1-((3-fluorophenyl)sulfonyl)-4-methoxy-1H-pyrrol-3-yl)-N-methylmethanamine (hereinafter referred to as ‘fexuprazan’) hydrochloride was dissolved in a solution containing 30 wt. % of polyethylene glycol (Polyethylene Glycol 400) polymer in physiological saline. The concentration was adjusted so that 0, 0.1, 0.5, 1, 2 mg/kg based on fexuprazan weight could be administered to each test animal in a liquid volume of 1 mL/kg, and then each test animal was administered through the tail vein as a single dose. In addition, 1 mg/kg of esomeprazole magnesium trihydrate, which is a positive control, based on esomeprazole weight was administered as a single dose through the tail vein in test animals. After 30 minutes, 80 mg/kg of indomethacin was orally administered as a single dose to each test animal to induce gastric bleeding and ulceration. An autopsy was performed 5 hours after administration of indomethacin, and the stomach was removed. Then, the ulcer index (%) was measured using an image program (Leica Application Suite V4), and gastric hemorrhage and erosion state were evaluated through histopathological examination.",
  "data": [
    {"smiles": "COc1ccc2nc([S@@+]([O-])Cc3ncc(C)c(OC)c3C)[nH]c2c1", "note": "[Esomeprazole, esomeprazole magnesium trihydrate, reference compound]", "values": [
      {"measurement": "Ulcer index (%)", "setting": "30 min before indomethacin 80 mg/kg oral, autopsy 5 h", "result": "6.1 ± 2.6", "unit": "%"},
      {"measurement": "Gastric erosion state", "setting": "histopathological examination", "result": "2.0 ± 1.8"},
      {"measurement": "Gastric hemorrhage state", "setting": "histopathological examination", "result": "1.3 ± 1.6^"}
    ]}
  ]
}
